From US20080200439A1, “Methods and compositions for modulating BK channel activity and vasodilation” (University of Tennessee Research Foundation, priority 2006, published 2008)

What was measured:
[1] = test system: BK channels; details: cited from earlier work
[2] = biological target: cbv1+β1 channels (UniProt Q16558+Q62976); experiment: Patch-clamp of heteromeric cbv1+β1 channels expressed in Xenopus oocytes; type: cell-based, rat; details: 10 μM; bath application to extracellular surface of O/O patches
From the text: cRNA Preparation and Injection into Xenopus Oocytes. Full-length cDNA coding for cbv1-subunits was cloned from rat cerebral artery myocytes by PCR and ligated to the PCR-XL-TOPO cloning vector (Invitrogen Corp., Carlsbad, Calif., United States of America) (Jaggar et al., 2005). cDNA coding for cbv1-subunits was cleaved from the cloning vector by BamHI (Invitrogen Corp., Carlsbad, Calif., United States of America) and XhoI (Promega, Madison, Wis., United States of America) and directly inserted into the pOX vector for expression in Xenopus oocytes. pOX-cbv1 was linearized with NotI (Promega, Madison, Wis., United States of America) and transcribed in vitro using T3 polymerase. Beta,-subunit cDNA inserted into the EcoR I/Sal I sites of the pCl-neo expression vector was linearized with NotI and transcribed in vitro using T7 polymerase. Beta4-subunit cDNA inserted into the pOx vector was linearized by NotI and transcribed using T3 polymerase. The mMessage-mMachine kit (Ambion Inc., Austin, Tex., United States of America) was used for transcription. The pOX vector and the cDNA coding for β1-subunits were generous gifts from Aguan Wei (Washington University, Saint Louis, Mo., United States of America) and Maria Garcia (Merck Research Laboratories, Whitehouse Station, N.J., United States of America).
Oocytes were removed from Xenopus laevis and prepared as described (Dopico et al., 1998). cRNA was dissolved in […] at 5 (cbv1) and 15 (β1 or β4) ng/μl; 1-μl aliquots were stored at −70° C. Cbv1 cRNA was injected alone (2.5 ng/μp) or coinjected with either β1 or β4 (7.5 ng/μl) cRNAs, giving molar ratios ≧6:1 (β:α). cRNA injection (23 nl/oocyte) was conducted using a modified micropipette (Drummond Scientific Co., Broomall, Pa., United States of America). The interval between injection and patch-clamp recordings was 48-72 h.
Electrophysiology. Oocytes were prepared for patch-clamp recordings as described (Dopico et al., 1998). Single-channel and macroscopic currents were recorded from inside-out (I/O) or outside-out (O/O) patches. For experiments with oocytes, both bath and electrode solutions contained (mM) 135 K^+ gluconate, 5 EGTA, 1 MgCl2, 15 HEPES, 10 glucose, pH 7.35. For experiments with myocytes, KCl substituted for K^+ gluconate. In all experiments, free Ca^2+ in solution was adjusted to the desired value by adding CaCl2. In most studies, free Ca^2+ in electrode solution=10 μM. In O/O studies with 17β-estradiol, however, free Ca^2+ in the electrode solution=0.3 μM. Nominal free Ca^2+ was calculated with MaxChelator Sliders (C. Patton, Stanford University, California, United States of America) and validated experimentally using Ca^2+-selective electrodes (Corning Incorporated Science Products Division, Corning, N.Y., United States of America).
Patch-recording electrodes were made as described (Dopico et al., 1998). Immediately before recording, the tip of each electrode was fire-polished on a microforge WPI MF-200 (World Precision Instruments, Inc., Sarasota, Fla., United States of America) to give resistances of 5-9 MD when filled with solution. An agar bridge with gluconate or Cl^− as the main anion (for oocyte and myocyte experiments, respectively) was used as ground electrode. After excision from the cell, the membrane patch was exposed to a stream of bath solution containing each agent at final concentration. Solutions were applied onto the patches using a pressurized system DAD12 (ALA Scientific Instruments, New York, N.Y., United States of America) via a micropipette tip with an internal diameter of 100 μm. Experiments were carried out at room temperature (21° C.).
Currents were recorded using an EPC8 amplifier (HEKA Electronics, Lambrecht/Pfalz, Germany) at 1 kHz using a low-pass, eight-pole Bessel filter 902LPF (Frequency Devices, Haverhill, Mass., United States of America). […]

[3] = test system: pressurized resistance cerebral arteries; experiment: Artery diameter measurement, pressurized rat middle cerebral arteries; details: 0.8 mM
Experimental: Artery Diameter Measurement. Middle cerebral arteries were isolated from adult male Sprague-Dawley rats (=250 g) or 8- to 12-week-old β1-knockout and C57BL/6 control mice. Rats and mice were decapitated using a guillotine and sharp scissors, respectively. These procedures were approved by the Institutional Animal Care and Use Committee from The University of Tennessee Health Science Center, an AMLAC-accredited institution. Pressurization of arteries was performed as described (Liu et al., 2004). Endothelium was removed by passing an air bubble into the vessel lumen for 90 sec. Diameter changes were monitored through an inverted microscope (Nikon Eclipse TS100, Nikon Corp., Tokyo, Japan), recorded on camera (Sanyo VCB-3512T, Sanyo Electric Corp., Japan), and transferred to a computer. Diameter data were acquired and analyzed using IonWizard 4.4 software (IonOptics Corp., Milton, Mass., United States of America).
Pressurized arteries were extraluminally perfused with physiological saline solution (PSS) (Liu et al., 2004) at a constant rate of 3.75 ml/min using a peristaltic pump Dynamax RP-1 (Rainin Instrument, Inc., Oakland, Calif., United States of America). At this rate, complete washout of the iberiotoxin (Ibtx) effect required >45 min. To keep basal tone under steady behavior, we shortened this period by increasing flow rate ˜3 times during washout of Ibtx, which sometimes evoked a flow-induced dilation (FIG. 1A). Equal volumes (25 ml) of vehicle- vs. LC-containing solutions were applied at equal, constant rate (see above) to the pressurized arterial segment in the chamber via a gravity system. Drugs were dissolved to make stock solutions (see Chemicals) and diluted in PSS to final concentration.
Chemicals. All chemicals were purchased from Sigma (St. Louis, Mo., United States of America), with the exception of 5β-cholanic acid 3α-ol (LC) (Steraloids, Inc., Newport, R.I., United States of America) and Ibtx (Alomone Labs Ltd., Jerusalem, Israel). On the day of the experiment, an LC stock solution (333 mM) in dimethyl sulfoxide (DMSO) was freshly prepared by sonication for 5 min. For arterial tone experiments, the LC stock was diluted 1/10 in DMSO and further diluted in PSS to render final LC concentration. Solution containing vehicle (0.1% DMSO; V/V) was used as control perfusion. For electrophysiological recordings, the LC stock solution was diluted 1/10 in 95% ethanol and further diluted with bath solution to render final LC concentration (3-1,000 μM). The DMSO/ethanol vehicle (≦0.1/≦0.86% final concentrations) in bath solution was used as control.
Data Analysis. Artery diameter response to each compound is shown as a percentage of the diameter obtained before compound application. Arterial diameter and electrophysiological data were analyzed with IonWizard 4.4 (IonOptics Corp., Milton, Mass., United States of America) and pCLAMP 8.0 (Molecular Devices, Union City, Calif., United States of America). Further analysis, plotting, and fitting were conducted using Origin 7.0 (Originlab Corp., Northampton, Mass., United States of America) and InStat 3.0 (GraphPad Software Inc., San Diego, Calif., United States of America).
After myogenic tone development at 60 mm Hg, intact arteries reached a diameter of 154.4±5.2 μm (n=17). Maximal contraction and dilation were checked by perfusing the vessel with 60 mM KCl at the beginning, and Ca^2+-free solution at the end of each experiment (FIGS. 1A & 1B). In all cases (n=17), application of 45 μM LC, that is, concentrations well below LC's critical micellar concentration (CMC) (≧1 mM under our recording conditions) (Roda et al., 1995) caused a significant increase in peak arterial diameter: +6% on top of a transient increase in diameter caused by vehicle-containing solution (FIGS. 1A-1C). […]

Chain of cbv1+β1 channels (Q62976 1-1148 isoform Q62976-2): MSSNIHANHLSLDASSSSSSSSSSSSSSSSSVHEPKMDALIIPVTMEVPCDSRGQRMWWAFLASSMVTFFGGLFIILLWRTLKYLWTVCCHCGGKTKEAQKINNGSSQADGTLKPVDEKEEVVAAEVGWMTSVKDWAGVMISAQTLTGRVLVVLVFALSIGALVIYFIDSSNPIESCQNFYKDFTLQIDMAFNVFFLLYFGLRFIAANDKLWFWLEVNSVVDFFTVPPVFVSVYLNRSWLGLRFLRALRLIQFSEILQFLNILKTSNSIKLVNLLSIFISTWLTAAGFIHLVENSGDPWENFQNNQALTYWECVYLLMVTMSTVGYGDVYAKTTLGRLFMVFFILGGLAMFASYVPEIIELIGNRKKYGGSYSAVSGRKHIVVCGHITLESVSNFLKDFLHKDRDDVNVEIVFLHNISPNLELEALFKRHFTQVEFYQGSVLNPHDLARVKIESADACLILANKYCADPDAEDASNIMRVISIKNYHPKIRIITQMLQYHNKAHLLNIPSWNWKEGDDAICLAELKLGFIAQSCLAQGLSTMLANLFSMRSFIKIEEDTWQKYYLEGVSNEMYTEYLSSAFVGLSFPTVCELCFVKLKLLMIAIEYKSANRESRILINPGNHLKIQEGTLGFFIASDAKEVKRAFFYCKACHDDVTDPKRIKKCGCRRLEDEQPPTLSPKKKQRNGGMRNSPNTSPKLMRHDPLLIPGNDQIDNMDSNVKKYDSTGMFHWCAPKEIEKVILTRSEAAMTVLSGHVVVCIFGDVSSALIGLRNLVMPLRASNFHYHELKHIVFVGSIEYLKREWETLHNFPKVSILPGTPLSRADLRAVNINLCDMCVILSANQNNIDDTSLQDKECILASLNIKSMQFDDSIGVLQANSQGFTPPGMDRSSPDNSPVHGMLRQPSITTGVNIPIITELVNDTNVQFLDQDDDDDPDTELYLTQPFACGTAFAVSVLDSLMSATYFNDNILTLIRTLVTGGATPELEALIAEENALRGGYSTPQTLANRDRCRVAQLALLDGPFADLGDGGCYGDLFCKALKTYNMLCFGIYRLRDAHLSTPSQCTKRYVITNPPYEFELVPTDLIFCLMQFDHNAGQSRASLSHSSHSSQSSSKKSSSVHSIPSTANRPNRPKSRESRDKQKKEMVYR
Chain of cbv1+β1 channels (Q16558 whole entry): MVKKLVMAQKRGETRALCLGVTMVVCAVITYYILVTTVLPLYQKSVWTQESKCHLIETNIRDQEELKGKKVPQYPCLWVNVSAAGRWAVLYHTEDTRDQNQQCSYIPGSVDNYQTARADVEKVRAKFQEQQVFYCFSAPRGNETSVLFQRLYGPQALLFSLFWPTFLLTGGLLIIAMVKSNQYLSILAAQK

In the case of `C[C@]12CC[C@@H]3c4ccc(O)cc4CC[C@H]3[C@@H]1CC[C@@H]2O` [17β-estradiol], the “Concentrations modulating BK activity through the channel α-subunit” value ([1]; Korovkina et al., 2004) is given as 0.01 to 1 µM, the “Concentrations increasing BK (hslo) channel activity by interacting with the β1-subunit” value ([1]; Valverde et al., 1999) is given as 1 to 30 µM and the “Effect on channel activity” value [2] is given as “channel activation”.

`Nc1ccncc1` [4-AP, 4-aminopyridine, reference compound] gave a Decrease in diameter [3] of −9.7±2.3%.

In the case of `CC/C(=C(\c1ccccc1)c1ccc(OCCN(C)C)cc1)c1ccccc1` [tamoxifen, Tamoxifen], the “Concentrations decreasing unitary current amplitude (as low as)” value ([1]; Duncan, 2005) is listed as 1 to 10 µM.
